Laboratory results taken from PubChem BioAssay AID248 (DTP/NCI, 2004).
Where “and” joins values, the source holds several entries; their conditions need not be identical. Equal entries are not always repeated. Inconclusive results and toxic doses are left out. No stated cut-off is given here; in the data, active means T/C of 150% or more; inactive means T/C below 125%.

Test system: L1210 leukemia ip in BDF1 mice, survival T/C
Experiment: NCI In Vivo Anticancer Drug Screen. Data for tumor model L1210 Leukemia (intraperitoneal) in B6D2F1 (BDF1) mice
Conditions: higher = longer survival
Procedure, shortened: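 Each compound was tested against a transplantable tumor grown in mice. The endpoint was survival, with treated animals benchmarked against vehicle controls as a simple ratio.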

[1] = endpoint: mean survival time, dose: 100.0 mg/kg/injection, schedule: Q04DX003 (ip), vehicle: saline
[2] = endpoint: mean survival time, dose: 200.0 mg/kg/injection, schedule: Q04DX003 (ip), vehicle: saline
[3] = endpoint: mean survival time, dose: 100.0 mg/kg/injection, schedule: Q01DX001 (ip), vehicle: saline
[4] = endpoint: mean survival time, dose: 200.0 mg/kg/injection, schedule: Q01DX001 (ip), vehicle: saline
[5] = endpoint: mean survival time, dose: 400.0 mg/kg/injection, schedule: Q01DX001 (ip), vehicle: saline
[6] = endpoint: mean survival time, dose: 100.0 mg/kg/injection, schedule: Q01DX001 (ip), vehicle: carboxymethylcellulose (CMC)
[7] = endpoint: mean survival time, dose: 200.0 mg/kg/injection, schedule: Q01DX001 (ip), vehicle: carboxymethylcellulose (CMC)
[8] = endpoint: mean survival time, dose: 400.0 mg/kg/injection, schedule: Q01DX001 (ip), vehicle: carboxymethylcellulose (CMC)
[9] = endpoint: mean survival time, dose: 400.0 mg/kg/injection, schedule: Q04DX003 (ip), vehicle: saline

Measured: T/C

COc1ccc(CCNC(=O)Cc2ccccc2[N+](=O)[O-])cc1OC
inactive: endpoint: mean survival time, dose: 10.0 mg/kg/injection, schedule: Q01DX001 (ip), vehicle: carboxymethylcellulose (CMC) 100 % of control | endpoint: mean survival time, dose: 20.0 mg/kg/injection, schedule: Q01DX001 (ip), vehicle: carboxymethylcellulose (CMC) 100 % of control | endpoint: mean survival time, dose: 40.0 mg/kg/injection, schedule: Q01DX001 (ip), vehicle: carboxymethylcellulose (CMC) 96 % of control | endpoint: mean survival time, dose: 80.0 mg/kg/injection, schedule: Q01DX001 (ip), vehicle: carboxymethylcellulose (CMC) 96 % of control

O=C(O)C1C2CC3C(C2)C31.[Ag] (centres undefined)
inactive: endpoint: mean survival time, dose: 20.0 mg/kg/injection, schedule: Q01DX009 (ip), vehicle: Klucel (hydroxypropylcellulose) (HPC) 91 % of control | endpoint: mean survival time, dose: 20.0 mg/kg/injection, schedule: Q04DX003 (ip), vehicle: Klucel (hydroxypropylcellulose) (HPC) 93 % of control | endpoint: mean survival time, dose: 40.0 mg/kg/injection, schedule: Q04DX003 (ip), vehicle: Klucel (hydroxypropylcellulose) (HPC) 89 % of control

Cc1cc(C)[s+]s1
inactive: endpoint: mean survival time, dose: 12.5 mg/kg/injection, schedule: Q01DX009 (ip), vehicle: saline 94 % of control | endpoint: mean survival time, dose: 25.0 mg/kg/injection, schedule: Q01DX009 (ip), vehicle: saline 100 % of control | endpoint: mean survival time, dose: 50.0 mg/kg/injection, schedule: Q01DX009 (ip), vehicle: saline 103 % of control and 91 % of control | [1] 106 % of control | [2] 97 % of control

COC(=O)NCCOS(C)(=O)=O
inactive: [3] 91 % of control | [4] 91 % of control | [5] 88 % of control

Cc1ccc(S(=O)(=O)Nc2ccc(Br)cc2)cc1
inactive: [6] 105 % of control | [7] 105 % of control | [8] 107 % of control

Cc1nc(Cl)ncc1N
inactive: [3] 100 % of control | [4] 98 % of control | [5] 98 % of control

CCOC(=O)c1c(N)ssc1=S
inactive: endpoint: mean survival time, dose: 100.0 mg/kg/injection, schedule: Q01DX009 (ip), vehicle: saline 100 % of control | [1] 102 % of control | endpoint: mean survival time, dose: 200.0 mg/kg/injection, schedule: Q01DX009 (ip), vehicle: saline 105 % of control | [2] 105 % of control | endpoint: mean survival time, dose: 400.0 mg/kg/injection, schedule: Q01DX009 (ip), vehicle: saline 105 % of control | [9] 107 % of control

CC(=O)c1cccc(NC2C(N)C(NC(=O)N(C)C)(C(C)O)C(C)(O)C2(O)COC(=O)c2c(C)cccc2O)c1 (centres undefined)
inactive: endpoint: mean survival time, dose: 0.25 mg/kg/injection, schedule: Q01DX Z (ip), vehicle: saline 98 % of control | endpoint: mean survival time, dose: 0.5 mg/kg/injection, schedule: Q01DX Z (ip), vehicle: saline 98 % of control | endpoint: mean survival time, dose: 0.7 mg/kg/injection, schedule: Q01DX015 (ip), vehicle: carboxymethylcellulose (CMC) 111 % of control | endpoint: mean survival time, dose: 1.0 mg/kg/injection, schedule: Q01DX Z (ip), vehicle: saline 113 % of control | endpoint: mean survival time, dose: 1.5 mg/kg/injection, schedule: Q01DX015 (ip), vehicle: carboxymethylcellulose (CMC) 122 % of control | endpoint: mean survival time, dose: 2.0 mg/kg/injection, schedule: Q01DX Z (ip), vehicle: saline 117 % of control | endpoint: mean survival time, dose: 3.0 mg/kg/injection, schedule: Q01DX001 (ip), vehicle: carboxymethylcellulose (CMC) 104 % of control | endpoint: mean survival time, dose: 3.0 mg/kg/injection, schedule: Q01DX015 (ip), vehicle: carboxymethylcellulose (CMC) 90 % of control | endpoint: mean survival time, dose: 6.0 mg/kg/injection, schedule: Q01DX001 (ip), vehicle: carboxymethylcellulose (CMC) 107 % of control | endpoint: mean survival time, dose: 12.0 mg/kg/injection, schedule: Q01DX001 (ip), vehicle: carboxymethylcellulose (CMC) 107 % of control | endpoint: mean survival time, dose: 25.0 mg/kg/injection, schedule: Q01DX001 (ip), vehicle: carboxymethylcellulose (CMC) 112 % of control | endpoint: mean survival time, dose: 50.0 mg/kg/injection, schedule: Q01DX001 (ip), vehicle: carboxymethylcellulose (CMC) 112 % of control | [6] 114 % of control | endpoint: median survival time, dose: 2.0 mg/kg/injection, schedule: Q04DX003 (ip), vehicle: acid diluted with saline 103 % of control | endpoint: median survival time, dose: 4.0 mg/kg/injection, schedule: Q04DX003 (ip), vehicle: acid diluted with saline 103 % of control | endpoint: median survival time, dose: 8.0 mg/kg/injection, schedule: Q04DX003 (ip), vehicle: acid diluted with saline 103 % of control | endpoint: median survival time, dose: 16.0 mg/kg/injection, schedule: Q04DX003 (ip), vehicle: acid diluted with saline 112 % of control

COc1cc2c(cc1OC)Cc1cc(OC)c(OC)cc1Cc1cc(OC)c(OC)cc1C2
inactive: [1] 92 % of control | [2] 96 % of control | [9] 97 % of control

O=C(Oc1ccc(N=Cc2ccc3c(c2)OCO3)cc1)Oc1ccc(N=Cc2ccc3c(c2)OCO3)cc1
inactive: [6] 96 % of control | [7] 95 % of control | [8] 93 % of control

C1CCCC2(CCC1)OCCO2
inactive: endpoint: mean survival time, dose: 100.0 mg/kg/injection, schedule: Q01DX009 (ip), vehicle: saline with Tween-80 93 % of control | endpoint: mean survival time, dose: 100.0 mg/kg/injection, schedule: Q04DX003 (ip), vehicle: saline with Tween-80 113 % of control | endpoint: mean survival time, dose: 200.0 mg/kg/injection, schedule: Q01DX009 (ip), vehicle: saline with Tween-80 102 % of control | endpoint: mean survival time, dose: 200.0 mg/kg/injection, schedule: Q04DX003 (ip), vehicle: saline with Tween-80 108 % of control | endpoint: mean survival time, dose: 400.0 mg/kg/injection, schedule: Q01DX009 (ip), vehicle: saline with Tween-80 101 % of control | endpoint: mean survival time, dose: 400.0 mg/kg/injection, schedule: Q04DX003 (ip), vehicle: saline with Tween-80 94 % of control

C(=N\N(Cc1ccccc1)CN(Cc1ccccc1)/N=C/c1ccccc1)/c1ccccc1
inactive: endpoint: mean survival time, dose: 100.0 mg/kg/injection, schedule: Q01DX001 (ip), vehicle: other 90 % of control | endpoint: mean survival time, dose: 200.0 mg/kg/injection, schedule: Q01DX001 (ip), vehicle: other 94 % of control | endpoint: mean survival time, dose: 400.0 mg/kg/injection, schedule: Q01DX001 (ip), vehicle: other 87 % of control
